Data from patent US4175081A, “5-Substituted thiadiazole ureas” (priority 1977, dated 1979).

Columns and labels:
Crabgrass (CG) [1] = test: Pre-emergence herbicide test; assay type: in vivo, Digitaria sanquinalis; details: Digitaria sanguinalis, pre-emergence, 336 h; 8 lb/acre; two weeks after treatment
Outline: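 Crabgrass (Digitaria sanquinalis) was surface seeded in 3' plastic pots of potting soil, covered with screened soil, and watered by sub-irrigation in greenhouse trays. Pots were seeded one day before spraying in a hood with a moving belt and fixed nozzle. Plants stayed in the greenhouse on sub-irrigation, and pre-emergence control was rated visually two weeks after treatment.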

Johnson grass (JG) [2] = test: Pre-emergence herbicide test; assay type: in vivo, Sorgum helepense; details: Sorghum halepense, 336 h, 8 lb/acre, two weeks after treatment
Outline: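 Visual injury or control rating two weeks post-treatment, after pre-emergence spray of 8 or 4 lbs active per acre (38 gal/acre) onto pots sown the previous day. Greenhouse watering by sub-irrigation only.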

Barnyard grass (BG) [3] = test: Pre-emergence herbicide test; assay type: in vivo; details: Echinochloa crus-galli, 336 h, 8 lb/acre, two weeks after treatment
Outline: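 Greenhouse pre-emergence spray test: pots seeded one day before treatment received compound at rates of 8 or 4 lb/acre (38 gal/acre). Visual injury/control scores for Echinochloa crus-galli taken at two weeks, with watering by sub-irrigation only.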

Amaranth pigweed (PW) [4] = test: Pre-emergence herbicide test; assay type: in vivo, Amaranthus retroflexus; details: 336 h, 8 lb/acre, two weeks after treatment
Outline: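 Visual injury or control ratings were made at two weeks on pre-emergence pots, sub-irrigated in the greenhouse. Seeds were sown a day before a hood spray delivering 8 lbs/acre (or 4 lbs/acre) of compound in 38 gallons per acre.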

Turnip (TP) [5] = test: Pre-emergence herbicide test; assay type: in vivo, Brassica sp.; details: Brassica rapa, pre-emergence, 336 h; 8 lb/acre; two weeks after treatment
Outline: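 In this pre-emergence greenhouse test, turnip was seeded on the surface of potting soil in 3' plastic pots, lightly covered with screened soil, and watered from below. One day later the pots were sprayed in a belt-fed spray hood. Watering continued only by sub-irrigation, and percent control was visually scored two weeks after treatment.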

Cotton (CT) [6] = test: Pre-emergence herbicide test; assay type: in vivo, Gossypium hirsutum var. DPL smooth leaf; details: Gossypium hirsutum, 336 h, 8 lb/acre, two weeks after treatment
Outline: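 Visual injury/control ratings were taken at two weeks post-spray. Pots seeded a day earlier received compound pre-emergence at 8 lbs/acre, or 4 lbs/acre, in a 38 gallon/acre spray volume, and were then held in the greenhouse, watered only from below.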

Corn (CN) [7] = test: Pre-emergence herbicide test; assay type: in vivo; details: Zea mays, 336 h, 8 lb/acre, two weeks after treatment
Outline: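 Visual injury/control ratings were made 2 weeks post-spray on corn pots seeded (4 seeds, seed-diameter depth) the day before treatment. Application was a belt-hood spray of 38 gal/acre delivering 8 lbs active per acre, with a 4 lbs/acre rate also formulated. Watering was by sub-irrigation throughout.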

Bean (BN) [8] = test: Pre-emergence herbicide test; assay type: in vivo, Phaseolus vulgaris var. Black Valentine; details: Phaseolus vulgaris, 336 h, 8 lb/acre, two weeks after treatment
Outline: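 Visual injury/control ratings were taken two weeks post-spray on sub-irrigated Phaseolus vulgaris var. Black Valentine. Pots were sown a day before treatment. Pre-emergence spray delivered 8 lbs actual compound per acre (or 4 lbs/acre) at 38 gallons per acre.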

Crabgrass (CG) [9] = test: Post-emergence herbicide test; assay type: in vivo, Digitaria sanquinalis; details: Digitaria sanguinalis, post-emergence, 336 h, two weeks after treatment; for pest or weed control at 8966.8 g/ha: 8 lb/acre
Outline: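 Crabgrass (Digitaria sanquinalis) was surface seeded individually in 3' plastic pots of potting soil, covered with screened soil, and watered by sub-irrigation in greenhouse trays. Planting was staggered so seedlings reached the target stage together. Post-emergence sprays were applied in a hood with a removable belt and fixed nozzle, and control was visually rated two weeks after treatment.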

Johnson grass (JG) [10] = test: Post-emergence herbicide test; assay type: in vivo, Sorgum helepense; details: Sorghum halepense, 336 h, two weeks after treatment; for pest or weed control at 8966.8 g/ha: 8 lb/acre
Outline: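 Visual injury or control scores taken 2 weeks after a post-emergence spray of pot-grown plants. Application was 8 lbs/acre (or 4 lbs/acre) in 38 gal/acre. Plants were held in the greenhouse with sub-irrigation only.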

Barnyard grass (BG) [11] = test: Post-emergence herbicide test; assay type: in vivo; details: Echinochloa crus-galli, 336 h, two weeks after treatment; for pest or weed control at 8966.8 g/ha: 8 lb/acre
Outline: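 Greenhouse pot-grown barnyard grass seedlings sprayed post-emergence at 8 lbs active compound per acre (some at 4 lbs/acre) in 38 gallons per acre, then sub-irrigated. Injury or control rated visually two weeks after treatment.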

Amaranth pigweed (PW) [12] = test: Post-emergence herbicide test; assay type: in vivo, Amaranthus retroflexus; details: 336 h, two weeks after treatment; for pest or weed control at 8966.8 g/ha: 8 lb/acre
Outline: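 Visual injury or control ratings were made two weeks after spraying, with greenhouse watering by sub-irrigation only. Treatment was post-emergence, when pigweed seedlings had 1 or 2 true leaves, at 8 lbs active compound per acre (4 lbs/acre formulations also made) in a 38 gallons-per-acre spray volume.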

Turnip (TP) [13] = test: Post-emergence herbicide test; assay type: in vivo, Brassica sp.; details: Brassica rapa, post-emergence, 336 h, two weeks after treatment; for pest or weed control at 8966.8 g/ha: 8 lb/acre
Outline: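 A greenhouse post-emergence herbicide test on turnip. Seeds were sown on the surface of potting soil in 3' plastic pots, lightly covered with screened soil and watered from below. Planting was timed so seedlings had 1 or 2 true leaves above the cotyledons at spraying, done in a hood with a fixed nozzle. Control or injury was scored by eye after two weeks.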

Cotton (CT) [14] = test: Post-emergence herbicide test; assay type: in vivo, Gossypium hirsutum var. DPL smooth leaf; details: Gossypium hirsutum, post-emergence, 336 h, two weeks after treatment; for pest or weed control at 8966.8 g/ha: 8 lb/acre
Outline: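 This greenhouse post-emergence test measured how well spray treatments controlled cotton. Seedlings of Gossypium hirsutum var. DPL smooth leaf, with expanded cotyledons and a first true leaf 1' in length, were sprayed with 50 ml formulations in a belt-fed spray hood. They were then returned to the greenhouse and watered only by sub-irrigation. Injury was scored visually as % control after two weeks.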

Corn (CN) [15] = test: Post-emergence herbicide test; assay type: in vivo; details: Zea mays, 336 h, two weeks after treatment; for pest or weed control at 8966.8 g/ha: 8 lb/acre
Outline: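 Greenhouse seedlings grown in potting soil and sprayed post-emergence at 8 lbs compound/acre (formulations also made for 4 lbs/acre) in 38 gallons/acre spray volume. Watering by sub-irrigation only. Injury or control rated visually two weeks after treatment.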

Bean (BN) [16] = test: Post-emergence herbicide test; assay type: in vivo, Phaseolus vulgaris var. Black Valentine; details: Phaseolus vulgaris, post-emergence, 336 h, two weeks after treatment; for pest or weed control at 8966.8 g/ha: 8 lb/acre
Outline: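 Bean seedlings (Phaseolus vulgaris var. Black Valentine) were grown in potting soil in 3' pots until the primary leaves expanded. They were then sprayed under a hood with a removable belt and fixed nozzle, using 50 ml formulations. Afterward they were returned to the greenhouse and watered only by sub-irrigation. Percent control was judged visually two weeks after treatment.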

[17] = tested on: variety of crops and weed species; test: Pre- and post-emergence herbicide tests, overall assessment of Tables III-VI; assay type: in vivo; details: data of Tables III-VI
Protocol: All crop and weed species were planted individually in 3' plastic pots containing potting soil. Four seeds each of corn, cotton, and snapbeans were seeded to a depth equal to the diameter of the seed. All other species were surface seeded and sprinkled with screened soil in an amount sufficient to cover the seed. Immediately after planting, all pots were watered by sub-irrigation in greenhouse trays. Pots for the pre-emergence phase were seeded one day before treatment.
Compounds were tested at rates of application equivalent to 8 lbs. of actual compound per acre in a spray volume of 38 gallons per acre. Spray hood constants required to deliver the above volume are as follows:
Two weeks after treatment, pre- and post-emergence injury or control was visually rated, and the results were as shown in the following tables. Pre-emergence data are provided in TABLE III and post-emergence data are provided in TABLE IV, for compounds having the formula illustrated in TABLE I. Correspondingly, pre-emergence and post-emergence data, respectively, are set forth in TABLES V AND VI, for compounds having the formula illustrated in TABLE II.

[18] = tested on: Yellow foxtail grass (YF); test: Post-emergence herbicide test; assay type: in vivo, Setaria glauca; details: Setaria, 336 h, two weeks after treatment
Outline: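 Visual rating of injury/control made 2 weeks post-spray. Seedlings at a uniform growth stage in soil-filled pots received a hood spray of 8 lbs/acre active compound, 38 gallons/acre volume, with a 4 lbs/acre rate also formulated. Watering was by sub-irrigation only.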

Row | SMILES | pest or weed control at 8966.8 g/ha (Crabgrass (CG) [1]) | pest or weed control at 8966.8 g/ha (Barnyard grass (BG) [3]) | pest or weed control at 8966.8 g/ha (Turnip (TP) [5]) | pest or weed control at 8966.8 g/ha (Cotton (CT) [6]) | pest or weed control at 8966.8 g/ha (Corn (CN) [7]) | pest or weed control at 8966.8 g/ha (Bean (BN) [8]) | pest or weed control at 8966.8 g/ha (Crabgrass (CG) [9]) | pest or weed control at 8966.8 g/ha (Johnson grass (JG) [10]) | pest or weed control at 8966.8 g/ha (Barnyard grass (BG) [11]) | pest or weed control at 8966.8 g/ha (Amaranth pigweed (PW) [12]) | pest or weed control at 8966.8 g/ha (Turnip (TP) [13]) | pest or weed control at 8966.8 g/ha (Cotton (CT) [14]) | pest or weed control at 8966.8 g/ha (Corn (CN) [15]) | pest or weed control at 8966.8 g/ha (Bean (BN) [16]) | herbicidal effectiveness / selectivity, in words [17] | also measured
1 | CNC(=O)Nc1nnc(CC(C)C)s1 [Example 21] | 20% | 10% | 20% | 10% | 10% | 100% | 30% | 30% | 20% | 20% | 20% | 50% | 20% | 60% | more selective when applied to a certain crop or weed species | pest or weed control at 8966.8 g/ha (Johnson grass (JG) [2]): 10%; pest or weed control at 8966.8 g/ha (Amaranth pigweed (PW) [4]): 60%
2 | CNC(=O)Nc1nnc(SC)s1 [Example 26] | 100% | 50% | 30% | 100% | 50% | 30% | 100% | 100% | 60% | 100% | 100% | 90% | 40% | 100% | extremely effective when applied to a variety of crops and weed species | pest or weed control (Crabgrass (CG) [9]; 2 lb/acre): 50%; pest or weed control at 4483.4 g/ha (Crabgrass (CG) [9]; 4 lb/acre): 100%; pest or weed control ([18]; 2 lb/acre): 60%; pest or weed control at 4483.4 g/ha ([18]; 4 lb/acre): 100%; pest or weed control at 8966.8 g/ha ([18]; 8 lb/acre): 90%; pest or weed control (Johnson grass (JG) [10]; 2 lb/acre): 30%; pest or weed control at 4483.4 g/ha (Johnson grass (JG) [10]; 4 lb/acre): 80%; pest or weed control at 2241.7 g/ha (Barnyard grass (BG) [11]; 2 lb/acre): 10%; pest or weed control at 4483.4 g/ha (Barnyard grass (BG) [11]; 4 lb/acre): 100%; pest or weed control at 2241.7 g/ha (Amaranth pigweed (PW) [12]; 2 lb/acre): 90%; pest or weed control at 4483.4 g/ha (Amaranth pigweed (PW) [12]; 4 lb/acre): 100%; pest or weed control at 2241.7 g/ha (Turnip (TP) [13]; 2 lb/acre): 60%; pest or weed control at 4483.4 g/ha (Turnip (TP) [13]; 4 lb/acre): 100%; pest or weed control at 2241.7 g/ha (Cotton (CT) [14]; 2 lb/acre): 100%; pest or weed control at 4483.4 g/ha (Cotton (CT) [14]; 4 lb/acre): 90%; pest or weed control (Corn (CN) [15]; 2 lb/acre): 20%; pest or weed control at 4483.4 g/ha (Corn (CN) [15]; 4 lb/acre): 100%; pest or weed control at 2241.7 g/ha (Bean (BN) [16]; 2 lb/acre): 100%; pest or weed control at 4483.4 g/ha (Bean (BN) [16]; 4 lb/acre): 100%
